The values that follow come from PubChem BioAssay AID179 (DTP/NCI, 2004).

Active and inactive are the calls of the source.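 How the source made its calls: active means compounds giving half or more protection of infected cells from virus-caused growth loss, again on retest; inactive means the rest.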

In this test the test system is CEM cells HIV-1 protection, formazan growth assay. In words: NCI AIDS Antiviral Assay. The conditions noted are these: for IC50: measured here: growth of uninfected CEM cells. In a few lines:
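Human CEM cells, uninfected and HIV-1-infected, exposed to five drug concentrations; growth measured by soluble formazan assay and scored as percent protection from infection, with protecting compounds retested.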

On to `Cn1c(C(=O)c2cc3ccccc3n2C)cc2ccccc21`, for which the EC50 was > 18.2 µM and the IC50 was > 18.2 µM.

On to `O=C(Cn1c(C(=O)c2ccccc2)nc2ccccc21)c1ccccc1`, for which the EC50 was > 200 µM and the IC50 is 7.41 µM.

Take `CCOC(=O)c1[nH]n(-c2ccccc2)c(=O)c1/C=N/C(=S)NNC(C)=O`: the outcome was inactive and the IC50 came to 138 µM.

For the compound `COc1cc(C(Cc2ccnc3ccccc23)Cc2ccnc3ccccc23)ccc1N(C)C`, the EC50 was > 16.2 µM and the IC50 was determined as 3.16 µM.

Consider `Cn1c(=O)c2c3ccccc3n(C)c2n(C)c1=O`, for which the EC50 is > 200 µM and the IC50 is > 200 µM.

Turning to `COc1c(O)c2c(=O)cc(OC)c3c4c(OC)cc(=O)c5c(O)c(OC)c6c(c(c1C(C(C)O)C6C(C)O)c23)c54` (centres undefined), the EC50 was > 2 µM and the IC50 came out at 0.339 µM.

Turning to `CCCCNc1ccc(/C=C2\C=Cc3ccccc32)cc1`, the EC50 is > 10 µM and the IC50 was > 10 µM.

With `CCCCCCCNC(=S)N/N=C/c1ccccc1O`, the EC50 was > 200 µM and the IC50 was determined as 10.5 µM.

Take `CC(=O)C(=Cc1cccc(Cl)c1)C(C)=O`: the EC50 was > 162 µM and the IC50 worked out at 26.3 µM.

Turning to `COc1c(O)c(C=O)c2c(O)c(-c3c(C)cc4c(C(C)C)c(OC)c(O)c(C=O)c4c3O)c(C)cc2c1C(C)C`, the EC50 was > 151 µM and the IC50 came out at 2.57 µM.

Take `N#CC1(C=O)c2ccccc2C=CN1C(=O)c1ccccc1` (centres undefined): the EC50 is > 91.2 µM and the IC50 is > 91.2 µM.

Take `CCOC(=O)C(C)(C)Oc1ccc2c(-c3ccc(Cl)cc3)cc(=O)oc2c1`: the EC50 was > 13.5 µM and the IC50 is > 13.5 µM.

For `CCOC(=O)c1cnc(-n2[nH]c3c(c2=O)CCCC3)[nH]c1=O`, the EC50 was > 151 µM and the IC50 was 29.5 µM.

`O=S(=O)(Nc1ccc(NS(=O)(=O)c2ccccc2)c(N2N=N2)c1)c1ccccc1`: the EC50 is > 200 µM and the IC50 worked out at 51.3 µM.

As for `COC(=O)[C@]1(C)CCC[C@]2(C)c3cc(Br)c(C(C)C)cc3CC[C@H]12`, the EC50 is > 100 µM and the IC50 was > 100 µM.

With `CCc1ccccc1NC(=O)C1=C(C)NC(C)=C(C(=O)Nc2ccccc2CC)C1c1cccc([N+](=O)[O-])c1`, the EC50 is > 19.1 µM and the IC50 is > 19.1 µM.

Consider `CN=C(NC(=S)N(C)C)N(C)C`, for which the result was inactive.

On to `NC(=S)Nc1[nH]c(=S)nc2[nH]ccc12`, for which the EC50 is > 91.2 µM and the IC50 came out at 83.2 µM.

Turning to `Cn1cnnc1SC(F)(F)c1nc2ccccc2o1`, the EC50 was 191 µM and the IC50 was > 200 µM.

As for `O=C1/C(=C/c2cccc([N+](=O)[O-])c2)CCc2ccccc21`, the EC50 was > 9.77 µM and the IC50 is > 9.77 µM.

Take `COc1cc(C2c3cc4c(c(O)c3C[C@H]3COC(=O)[C@@H]23)OCO4)cc(OC)c1OC` (some centres undefined): the EC50 was > 200 µM and the IC50 was 0.468 µM.

For the compound `CC(=O)NC1C(OCc2ccccc2)OC(CO)C(O)C1OCC(=O)NC(C)C(=O)NC(CCC(=O)NCCCCCNc1c2ccccc2nc2cccc([N+](=O)[O-])c12)C(N)=O` (centres undefined), the EC50 is > 200 µM and the IC50 is 0.0776 µM.

Take `Cc1ccc2scc3c4ccccc4nc-3c2c1`: the EC50 was > 200 µM and the half-inhibitory concentration (IC50) amounted to 0.479 µM.

For `COc1ccc(N=Nc2c(-c3c(OC)cc4occc4c3OC)[nH]c(=O)c(C#N)c2C)cc1`, the EC50 was > 200 µM and the IC50 was determined as 120 µM.

For `Oc1[nH]c2ccccc2c1N=NC(=S)Nc1ccccc1Cl`, the EC50 is > 200 µM and the IC50 amounted to 1.51 µM.

Turning to `COC(=O)C1CC=CCCC1=O` (centres undefined), the EC50 was > 776 µM and the IC50 is 275 µM.

For `CCN1CCCc2cc3c(C(F)(F)F)cc(=O)oc3cc21`, the EC50 was > 17.4 µM and the IC50 was > 17.4 µM.

Turning to `O=C(Nc1ccn(C2CCC(CO)O2)c(=O)n1)c1ccccc1` (centres undefined), the EC50 was 0.741 µM and the IC50 was > 200 µM.

Consider `O=c1oc2ccccc2c(O)c1C1=N/C(=N/N=C/c2ccc(Cl)cc2)SC1`, for which the EC50 was > 200 µM and the IC50 is > 200 µM.

For `NCCCNCCCCN1CC1`, the EC50 was > 200 µM and the IC50 was determined as 1.17 µM.

In the case of `CCN(C(=O)c1ccc([N+](=O)[O-])cc1)C(c1ccccc1)P(=O)(c1ccccc1)c1ccccc1` (centres undefined), the outcome was inactive.

`C1=Cc2ccccc2/C1=C/c1ccc2c(c1)OCO2`: the EC50 was > 20.9 µM and the IC50 is 12.3 µM.

With `COc1ccc(/C=C2\CN(C)CC3C2=NC(=S)NC3c2ccc(OC)cc2)cc1` (centres undefined), the EC50 was > 200 µM and the IC50 was 6.61 µM.

With `CCOC(=O)C1=C(OS(=O)(=O)C(F)(F)F)CCCC1`, the EC50 was > 200 µM and the IC50 was > 200 µM.

With `Nc1n[n+]([O-])c2cc([N+](=O)[O-])ccc2[n+]1[O-]`, the EC50 is > 20 µM and the IC50 amounted to 0.603 µM.

For the compound `COC(=O)C1Cc2c(n(Cc3ccccc3)c3ccccc23)C(CCC(=O)O)N1C(C)C` (centres undefined), the result was inactive.

For the compound `CCCCCCCCCCCC1OC[C@H]2O[C@@H](n3cc(C)c(=O)[nH]c3=O)C[C@H]2N1O` (some centres undefined), the EC50 was > 200 µM and the 50% inhibitory concentration (IC50) came to 21.9 µM.

On to `CC(C)N(C(=O)C12C3C4C5(C#N)C3C1(C#N)C5C42I)C(C)C` (centres undefined), for which the EC50 is > 617 µM and the IC50 is 316 µM.

With `Cc1cccc(C(C)(C)C)c1NC(=O)C(C#N)C1=C(Cl)C(=O)c2ccccc2C1=O` (centres undefined), the EC50 was > 107 µM and the IC50 was 22.9 µM.

Turning to `O=C(c1ccco1)N(C(=S)N1CCN(c2ccccc2)CC1)C1CCCCC1`, the EC50 was > 18.2 µM and the IC50 was 12.6 µM.

For the compound `O=C1OCCN(CCO)C12CCCC2`, the EC50 was > 759 µM and the IC50 is > 759 µM.

With `Cc1ccccc1NC(=O)CC1C(=O)Nc2ccccc2S1=O` (centres undefined), the EC50 was > 21.9 µM and the IC50 is > 21.9 µM.

Turning to `O=C(NN1C(=O)C(Cl)C1c1ccccc1Cl)c1ccccc1O` (centres undefined), the EC50 was > 14.8 µM and the IC50 is > 14.8 µM.

Turning to `C[C@]12CC[C@H](OC3OC(CO)C(O)C(O)C3O)C[C@H]1CC[C@@H]1[C@@H]2CC[C@]2(C)[C@@H](C3=CCOC3=O)CC[C@]12O` (some centres undefined), the EC50 was > 100 µM and the IC50 amounted to 0.0661 µM.

For `COc1ccc(C23OCCN2C(=O)c2ccccc23)cc1` (centres undefined), the EC50 is > 200 µM and the IC50 was found to be 19.1 µM.

Consider `Cn1nc(-c2ccccc2)c(N=[N+]=[N-])cc1=O`, for which the EC50 was > 200 µM and the IC50 was > 200 µM.

Consider `Cc1cc(NS(=O)(=O)c2ccc(NC(NC(=O)OC(C)C)(C(F)(F)F)C(F)(F)F)cc2)nc(C)n1`, for which the EC50 is > 200 µM and the IC50 is > 200 µM.

As for `Cc1cc(C)nc(NS(=O)(=O)c2ccc(NC(=O)c3cccn4c(=O)c5ccccc5nc34)cc2)n1`, the outcome was inactive.

Take `O=C1c2cccn2-c2ccccc2OC1c1ccc(NC(=S)Nc2ccc(Cl)cn2)cc1` (centres undefined): the EC50 was > 200 µM and the IC50 was determined as 15.8 µM.

As to `O=c1[nH]c2cc(Cl)c(Br)cc2o1`, the EC50 was 112 µM and the IC50 amounted to 204 µM.

Turning to `Cc1cc2nc(-c3ccccc3[N+](=O)[O-])[nH]c2cc1C`, the result was inactive.

`COc1cc2c(cc1OC)C1c3ccccc3CN1CC2` (centres undefined): the EC50 is > 200 µM and the IC50 amounted to 105 µM.
